According to paper PMC12037037 (Proceedings of the National Academy of Sciences of the …, 2025):

Experiments:
[1] = system: cultured rat embryonic cortical neurons; test: Neuritogenesis assay (Sholl analysis, DIV6); type: cell-based; details: 1 µM, DIV6, mean ± SEM
C57BL/6J mice = test: Amphetamine-induced locomotion; type: in vivo; details: VEH + AMPH 3 mg/kg
Procedure: Figure S11. […] (A) Pretreatment with (+)-JRT (1 mg/kg,
(§1) IP) can block AMPH-induced hyperlocomotion in female, but not male, mice. (B) Pretreatment with (+)-JRT (1 mg/kg, IP) […]
(§2) AMPH = (+)-amphetamine; PCP = phencyclidine; VEH = vehicle; ns = not significant. *p < 0.05, **p < 0.01, ***p < 0.001, ****p < 0.0001, as compared to the comparator(s) indicated by a horizontal bar. See Methods and SI Appendix, Table S1 for full details on statistics.
(1 picture or pasted object on this page, not shown here)
Amphetamine-Induced Locomotion. The amphetamine-induced hyperlocomotion assay was performed using male and female C57BL/6J mice that were approximately 8 weeks old at the time of the experiments. Animals were first placed in the test arena (40 cm x 40 cm) for 15 min to obtain a basal reading of locomotion and habituate them to the testing arena.
Next, animals were administered (+)-JRT (1 mg/kg) or VEH (2.5 mL/kg, i.p) and placed back in the test arena. After 15 min, the animals were administered (+)-amphetamine (3 mg/kg) or VEH (2.5 mL/kg) and placed back in the test arena for 60 minutes. Locomotion during the entire experiment was quantified using ANYmaze Video Tracking System, version 7.07 (Stoelting Co.). The test arena was cleaned thoroughly with 70% ethanol between trials. […]
(§3) Reads were aligned to the GRCm39 genome assembly using STAR, processed with Picard, and counted with the Subread software. Transcript inclusion criteria consisted of a minimum raw expression level of 25 transcripts in a minimum of 4 samples. Surrogate variable analysis was conducted with the sva package 2023 release v3.5.0 in R and normalization and differential expression analysis was performed with DESeq2 v4.3 with a baseMean threshold of 10. Heatmaps were created with the pheatmap v1.0.12 with sample-wise z-scores plotted and both row and column grouping allowed using pearson's distances and ward.D for clustering. Gene-wise selection criteria for heatmaps were a baseMean expression threshold of 50 to focus on robustly expressed genes, p value < 0.05, and presence in the top 250 genes sorted by absolute value of log2FC. Additionally, z score was capped at 2 for visualization purposes. Schizophrenia gene sets were extracted from a recent TWAS study (30).
(§4) For Figure S8G, the TWAS set was filtered for FDR < 0.01. Permutation testing was conducted to quantify the overlap of top genes from schizophrenia TWAS with the perm_test function from the bulkWarehouse package 2023 release v1.2.7.
(§5) Briefly, the intersection of top differentially expressed genes and top TWAS genes is compared to an empirical distribution created by calculating the intersection with our top DEGs when randomly sampling candidate genes from our dataset equal to the size of the TWAS sample. […]

male Sprague Dawley rats = test: Rat forced swim test (FST); type: in vivo; details: 10mg/kg IP, 24 h after administration
Procedure: as §3, §4
Briefly, the intersection of top differentially expressed genes and top TWAS genes is compared to an empirical distribution created by calculating the intersection with our top DEGs when randomly sampling candidate genes from our dataset equal to the size of the TWAS sample. Selection criteria from the TWAS include an expression level of 25 transcripts in a minimum of 4 samples in our dataset, FDR < 0.01 from the TWAS and top 250 sorted by absolute value of log2FC. Selection criteria from our gene set were an expression level of 25 transcripts in a minimum of 4 samples, p value < 0.1 and top 250 sorted by absolute value of log2FC.
Rat Forced Swim Test (FST). This study was performed by Psychogenics (Paramus, NJ). Male Sprague Dawley rats were purchased from Envigo (Indianapolis, IN), and were 8 weeks old at the time of the experiments. Upon receipt, they were assigned unique identification numbers (tail marked) and group housed in ventilated cages with 3 rats per cage. All animals […]
remained housed in groups of three for the remainder of the study. All rats were acclimated to the colony room for up to one week prior to dosing. During the period of acclimation, rats were examined and handled daily, and weighed to assure adequate health and suitability. The room temperature was maintained between 20 °C and 23 °C with a relative humidity of 30%–70%. Lab Rodent Diet 5001 (W.F. Fisher, Cat # 11015) and water were provided ad libitum. Animals were randomly assigned across treatment groups. All testing was performed during the light phase of the light/dark cycle. Behavioral testing was conducted according to established protocols approved by the IACUC committee and PGI Standard Operation Procedures (SOP). Each forced swim chamber was constructed of clear acrylic (height = 40 cm; diameter = 20.3 cm). Only one rat was placed in the swim chamber at a time for each swim test. The water was changed and the chamber cleaned between each animal. The water depth was 16 cm in the first swim session (pre-test) and 30 cm in the second swim session (test). The water was maintained at 23 °C ± 1 °C for all swim sessions. At the end of each swim test rats were dried with paper towels and returned to the home cage. All animals were carefully monitored to ensure their safety in the swim test and any animal unable to maintain a posture with its nose above water was immediately removed from the water and not used further in the study. Animals were first subjected to a pre-test for 15 min. Immediately after the pre-test, they were administered compounds or VEH via i.p. injection (1 ml/kg). Racemic ketamine hydrochloride (10 mg/kg) was used as a positive control. A salt correction factor of 1.36 was used when preparing formulations of (+)-JRT to ensure that the dose corresponded to that of the free base. […]

male Long Evans rats = test: Probabilistic reward task (PRT) under chronic cold-water stress; type: in vivo; details: KET 10 mg/kg IP
male C57BL/6J mice = test: PCP-induced locomotion (Psychogenics); type: in vivo; details: VEH + PCP 5 mg/kg IP; VEH + VEH 11101 ± 1709
Procedure: as §1, §2
(1 picture or pasted object on this page, not shown here) […]
PCP-Induced Locomotion. The PCP-induced hyperlocomotion assay was performed by Psychogenics using male C57BL/6J mice that were approximately 8 weeks old at the time of the experiments. The experiment was performed during the animal’s light cycle phase. On the day of testing, animals were acclimated to the experimental room for at least 1 h prior to treatment. Animals were then administered with VEH or JRT (IP, 10 mL/kg) and placed in holding cages for 30 min, after which mice were placed in the open field chambers (27.3 x 27.3 x 30.3; Med Associates Inc., St Albans, VT). Baseline activity was recorded for 30 min. Next, mice received either PCP (5 mg/kg, IP, 10 ml/kg) or VEH and were returned to the open field chambers for a 60 min test session. Locomotion was assessed using consecutive infrared beam breaks. At the end of each session, the chambers were thoroughly cleaned. […]
as §3, §4, §5

[2] = system: panel of 55 central nervous system targets; test: Competitive radioligand binding selectivity panel (Eurofins Discovery)
Procedure: Figure S3. Selectivity profiles for (+)-JRT and (–)-JRT across 55 central nervous system targets. The effects of (+)- JRT (10 μM) and (–)-JRT (10 μM) on a wide range of targets were assessed by Eurofins Discovery. Data represent % inhibition of the binding of a radioactively labeled ligand specific for each target. Assays were conducted in duplicate and the results were averaged.
Data Analysis and Statistics. Treatments were randomized, and data were analyzed by experimenters blinded to treatment conditions. Statistical analyses were performed using GraphPad Prism (version 10.0.3) unless noted otherwise.
All comparisons were planned prior to performing each experiment. No data were excluded. Data are represented as mean ± SEM, unless noted otherwise, with asterisks indicating *p < 0.05, **p < 0.01, ***p < 0.001, and ****p < 0.0001. Details of all statistical tests are shown in SI Appendix, Table S1. […]
Both (+)-JRT and (–)-
JRT were synthesized in-house and judged to be analytically pure based on NMR and LC-MS data. For cell culture experiments, VEH = 0.1% (agonist studies) or 0.2% (antagonist studies) molecular biology grade dimethyl sulfoxide (Sigma-Aldrich). For in vivo experiments, compounds were administered i.p. at 5 mL/kg using 0.9% saline as the vehicle, unless noted otherwise. VEH = USP grade saline (0.9%). Stock solutions for behavioral assays were prepared fresh before use.
Fumarate salts of (+)-JRT and (–)-JRT were used for all biological studies unless noted otherwise.
Animals. All experimental procedures involving animals were approved by the Institutional Animal Care and Use Committee (IACUC) at the University of California, Davis, the Salk Institute, Weill Cornell Medicine, McLean Hospital (Harvard Medical School), or the Contract Research Organization (CRO) where the study was performed. All procedures involving animals adhered to principles described in the National Institutes of Health Guide for the Care and Use of Laboratory Animals.
Animals were either obtained from Jackson Laboratory (Sacramento, C.A.) or bred in-house unless noted otherwise. Power analyses were conducted to ensure appropriate sample sizes for all experiments involving animals. Animals were housed 2–5 animals of the same sex per cage on a 12h light/dark cycle and were given ad libitum access to food and water unless noted otherwise. The University of California, Davis, the Salk Institute, and Weill Cornell Medicine are accredited by the Association for Assessment and Accreditation of Laboratory Animal Care International (AAALAC). Whenever possible, both sexes were utilized. However, a single sex was utilized in some cases when 1) a contract research organization had only […]
Radioligand Binding Selectivity Panel. Competitive radioligand binding studies for (+)-JRT (10 μM) and (–)-JRT (10 μM) were performed across a panel of receptors at Eurofins Discovery. Experiments were performed using the free bases of […]
radioligand and source of receptor (5,6,7,8,9,10,11,12).
Radioligand Binding Assays (5-HT2AR and 5-HT2CR). The 5-HT2AR and 5-HT2CR competitive radioligand binding assays were performed at Epics Therapeutics S.A. (Belgium, FAST-0505B) using conventional methods. Experiments were performed using the free bases of (+)-JRT and (–)-JRT. […] Nonspecific binding was determined by co-incubation with 200-fold excess of cold competitor DOI. […]

## CN1CCN(C2=Nc3cc(Cl)ccc3Nc3ccccc32)CC1 [CLZ, clozapine, reference compound]
[1]; VEH 1.000 ± 0.05010
  Area under the curves of the Sholl plots (Figure S8D): 1.045 ± 0.04563
[1]; VEH 2.325 ± 0.2641
  Total branches (Figure S8C): 3.280 ± 0.2858
[1]; VEH 6.275 ± 0.2292
  Number of primary dendrites (Figure S8B): 7.620 ± 0.2586

## C[C@H](N)Cc1ccccc1 [AMPH, (+)-amphetamine, reference compound]
C57BL/6J mice; female mice, VEH + VEH 101.9 ± 15.04
  Locomotion (Figure 11A Females): 418.5 ± 32.97
C57BL/6J mice; male mice, VEH + VEH 59.80 ± 4.206
  Locomotion (Figure 11A Males): 330.5 ± 74.31

## CNC1(c2ccccc2Cl)CCCCC1=O (centres unmarked) [Ketamine, ketamine, reference compound]
Male Sprague Dawley rats; VEH 22.10 ± 1.929
  Swimming (Figure 6B): 34.10 ± 1.187
Male Sprague Dawley rats; VEH 37.20 ± 1.867, of 60 scored behaviors
  Immobility (Figure 6B): 25.00 ± 1.265
Male Long Evans rats; Day 2, Day 1 0.120 ± 0.042
  Response bias (log b) (Figure 6G): 0.330 ± 0.035
Male Long Evans rats; Day 3, Day 1 0.120 ± 0.042
  Response bias (log b) (Figure 6G): 0.304 ± 0.091
Male Long Evans rats; Day 11, Day 1 0.120 ± 0.042
  Response bias (log b) (Figure 6G): 0.266 ± 0.086
Male Long Evans rats; Day 1 (stressed, before drug) 0.120 ± 0.042
  Response bias (log b) (Figure 6G): 0.457 ± 0.070

## c1ccc(C2(N3CCCCC3)CCCCC2)cc1 [PCP, phencyclidine, reference compound]
Male C57BL/6J mice
  Locomotion, infrared beam breaks (Figure 11B): 26552 ± 1179

## CCN(CC)C(=O)[C@H]1C=C2c3cccc4ccn(c34)C[C@@H]2N(C)C1 [(–)-JRT]
[2]; 10 μM, free bases
  Selectivity across panel of 55 central nervous system targets: highly selective for a subset of serotonin receptors
[2]; radioligand binding, unlike LSD
  Affinity for dopamine, histamine, or adrenergic receptors: neither of these compounds exhibited affinity
